Results: PubChem BioAssay (NCI)
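Tested at 5 concentrations; 48 h exposure; 96-well plates; endpoints linearly interpolated, else capped at highest concentration. Here, GI50 denotes the concentration required for 50% inhibition of growth. TGI is the concentration that stops growth completely.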

Columns and labels:
Test in all cases: NCI-60 cell line screen, 48 h
[1] = system: MALME-3M melanoma
[2] = system: UACC-257 melanoma
[3] = system: TK-10 renal
[4] = system: OVCAR-3 ovarian
[5] = system: HS 578T breast
[6] = system: HCT-116 colon
[7] = system: PC-3 prostate
[8] = system: SK-MEL-28 melanoma
[9] = system: K-562 leukemia
[10] = system: UO-31 renal
[11] = system: MDA-N
[12] = system: NCI/ADR-RES ovarian
[13] = system: UACC-62 melanoma
[14] = system: ACHN renal
[15] = system: NCI-H522 lung
[16] = system: LOX IMVI melanoma
[17] = system: HOP-92 NSCLC
[18] = system: OVCAR-5 ovarian
[19] = system: BT-549 breast
[20] = system: MDA-MB-231 breast
[21] = system: OVCAR-8 ovarian
[22] = system: MOLT-4 leukemia
[23] = system: HL-60(TB) leukemia
[24] = system: EKVX NSCLC
[25] = system: CAKI-1 renal
[26] = system: MDA-MB-435
[27] = system: SW-620 colon
[28] = system: SK-OV-3 ovarian
[29] = system: NCI-H23 lung
[30] = system: SK-MEL-5 melanoma
[31] = system: MCF7 breast
[32] = system: OVCAR-4 ovarian
[33] = system: 786-0 renal
[34] = system: A549 NSCLC
[35] = system: SK-MEL-2 melanoma
[36] = system: SF-539 CNS
[37] = system: SNB-75 CNS
[38] = system: SF-268 CNS
[39] = system: HCT-15 colon
[40] = system: RPMI-8226 leukemia
[41] = system: SF-295 CNS
[42] = system: NCI-H226 lung
[43] = system: HT29 colon
[44] = system: RXF 393 renal
[45] = system: SR leukemia
[46] = system: U251 CNS
[47] = system: KM12 colon
[48] = system: COLO 205 colon
[49] = system: M14 melanoma
[50] = system: SNB-19 CNS
[51] = system: HOP-62 NSCLC
[52] = system: T-47D breast
[53] = system: DU-145 prostate
[54] = system: SN12C renal
[55] = system: HCC-2998 colon
[56] = system: NCI-H460 lung
[57] = system: IGROV1 ovarian
[58] = system: CCRF-CEM leukemia

O=[N+]([O-])c1ccc2c3c1[C@H]1O[C@H]1c1cccc(c1-3)[C@@H]1O[C@H]21
TGI [1]: 4.64 µM
TGI [2]: 4.87 µM
TGI [3]: > 30 µM
TGI [4]: 6.2 µM
TGI [5]: 7.06 µM
TGI [6]: 3.59 µM
TGI [7]: > 20 µM
TGI [8]: 6.73 µM
TGI [9]: > 100 µM
TGI [10]: 3.62 µM
TGI [11]: 4.91 µM
TGI [12]: 5.65 µM
TGI [13]: 3.69 µM
TGI [14]: 5.17 µM
TGI [15]: 3.42 µM
TGI [16]: 1.28 µM
TGI [17]: 5.03 µM
TGI [18]: 6.77 µM
TGI [19]: 3.89 µM
TGI [20]: 3.87 µM
TGI [21]: 3.24 µM
TGI [22]: > 100 µM
TGI [23]: 8.85 µM
TGI [24]: 4.08 µM
TGI [25]: 3.73 µM
TGI [26]: 4.14 µM
TGI [27]: 2.75 µM
TGI [28]: 11.6 µM
TGI [29]: 3.88 µM
TGI [30]: 7.82 µM
GI50 [31]: 2.78 µM
TGI [31]: > 100 µM
TGI [32]: 4.46 µM
TGI [33]: 3.56 µM
TGI [34]: 15.5 µM
TGI [35]: > 100 µM
TGI [36]: 4.09 µM
TGI [37]: 4.1 µM
TGI [38]: 4.38 µM
TGI [39]: 4.47 µM
TGI [40]: > 100 µM
TGI [41]: 12.3 µM
TGI [42]: > 100 µM
TGI [43]: 6.57 µM
TGI [44]: 3.38 µM
TGI [45]: > 100 µM
TGI [46]: 3.98 µM
TGI [47]: 5.86 µM
GI50 [48]: 1.72 µM
TGI [48]: 3.69 µM
TGI [49]: 3.75 µM
TGI [50]: 13.6 µM
TGI [51]: 10.8 µM
TGI [52]: 6.18 µM
TGI [53]: 6.25 µM
TGI [54]: 4.69 µM

N#Cc1nc(/C=C/c2nc(C#N)c(N)o2)oc1N
TGI [1]: > 10 µM
TGI [2]: > 10 µM
TGI [3]: > 10 µM
TGI [5]: > 10 µM
TGI [6]: > 10 µM
TGI [7]: > 10 µM
TGI [8]: > 10 µM
TGI [55]: > 10 µM
TGI [9]: > 10 µM
TGI [10]: > 10 µM
TGI [56]: > 10 µM
TGI [11]: > 10 µM
TGI [57]: > 10 µM
TGI [12]: > 10 µM
TGI [13]: > 10 µM
TGI [14]: > 10 µM
TGI [15]: > 10 µM
TGI [16]: > 10 µM
TGI [17]: > 10 µM
TGI [19]: > 10 µM
TGI [20]: > 10 µM
TGI [21]: > 10 µM
TGI [23]: > 10 µM
TGI [24]: > 10 µM
TGI [25]: > 10 µM
TGI [26]: > 10 µM
TGI [27]: > 10 µM
TGI [28]: > 10 µM
TGI [29]: > 10 µM
TGI [30]: > 10 µM
TGI [31]: > 10 µM
TGI [32]: > 10 µM
TGI [33]: > 10 µM
TGI [34]: > 10 µM
TGI [58]: > 10 µM
TGI [36]: > 10 µM
TGI [37]: > 10 µM
TGI [38]: > 10 µM
TGI [39]: > 10 µM
TGI [40]: > 10 µM
TGI [41]: > 10 µM
TGI [42]: > 10 µM
TGI [43]: > 10 µM
TGI [44]: > 10 µM
TGI [45]: > 10 µM
TGI [47]: > 10 µM
TGI [48]: > 10 µM
TGI [49]: > 10 µM
TGI [50]: > 10 µM
TGI [51]: > 10 µM
TGI [52]: > 10 µM
TGI [53]: > 10 µM
TGI [54]: > 10 µM
